One may read the IC50 as the concentration that gives 50% inhibition.

Peptide text beside a SMILES is read from it. * marks the point of attachment. X1 = O=C(c1ccccc1)c1ccccc1N*; Cbz = O=C(OCc1ccccc1)*

The source of these data is EP0166355A2, “Substituted aminophenyl compounds and acylaminophenyl compounds and pharmaceutical compositions containing them” (Merck & Co., Inc., priority 1984, dated 1986).

One experiment has as its target T1, CCK receptor (Rattus norvegicus, UniProt P30551).
T1 construct: The whole pancreas was dissected free of fat tissue and was homogenized; from tissue; host or cells: rat whole pancreas membrane homogenate
T1 sequence (P30551 1-444): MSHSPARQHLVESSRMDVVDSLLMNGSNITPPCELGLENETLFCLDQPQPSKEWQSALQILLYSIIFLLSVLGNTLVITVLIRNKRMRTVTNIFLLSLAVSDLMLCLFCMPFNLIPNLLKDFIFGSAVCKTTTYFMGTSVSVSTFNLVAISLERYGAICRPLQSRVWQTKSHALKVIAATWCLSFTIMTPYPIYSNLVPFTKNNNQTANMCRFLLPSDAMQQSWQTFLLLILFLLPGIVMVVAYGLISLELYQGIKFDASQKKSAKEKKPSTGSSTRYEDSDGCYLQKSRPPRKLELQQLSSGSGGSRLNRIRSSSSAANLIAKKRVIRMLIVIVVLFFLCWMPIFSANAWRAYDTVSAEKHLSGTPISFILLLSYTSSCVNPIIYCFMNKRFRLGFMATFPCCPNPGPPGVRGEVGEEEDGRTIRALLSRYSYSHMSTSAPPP
Kind of experiment: CCK Receptor Binding (Pancreas), 125I-CCK-33. On the set-up: species or system rats. The note with it: inhibition of 125I-CCK-33 binding, rat pancreas membranes, 37°C, 30 minutes; read-out: IC50(µM) ^125I-CCK Pancreas. As to the method: 1. CCK Receptor Binding (Pancreas)
CCK-33 was radiolabeled with ^125 I-Bolton Hunter reagent (2000 Ci/mmole) as described by Sankara et al. (J. Biol. Chem. 254: 9349-9351, 1979). Receptor binding was performed according to Innis and Snyder (Proc. Natl. Acad. Sci. 77: 6917-6921, 1980) with the minor modification of adding the additional protease inhibitors, phenylmethane sulfonyl fluoride and o-phenanthroline. The latter two compounds have no effect on the ^125I-CCK receptor binding assay.
Male Sprague-Dawley rats (200-350g) were sacrificed by decapitation. The whole pancreas was dissected free of fat tissue and was homogenized in 20 volumes of ice-cold 50 mM, Tris HC1 (pH 7.7 at 25°C) with a Brinkmann Polytron PT 10. The homogenates were centrifuged at 48,000 g for 10 min. Pellets were resuspended in Tris Buffer, centrifuged as above and resuspended in 200 volumes of binding assay buffer (50 mM Tris HC1, pH 7.7 at 25°C, 5 mM dithiothrietol, 0.1 mM bacitracin, 1.2 mM phenylmethane sulfonyl fluoride and 0.5 mM o-phenanthroline). For the binding assay, 25 µl of buffer (for total binding) or unlabeled CCK-8 sulfate to give a final concentration of lµM (for nonspecific binding) or the compounds of Formula I (for determination inhibition of 125I-CCK binding) and 25 ul of ^125 I-CCK-33 (30,000-40,000 cpm) were added to 450 µl of the membrane suspensions in microfuge tubes. All assays were run in duplicate or triplicate. The reaction mixtures were incubated at 37°C for 30 minutes and centrifuged in a Beckman Microfuge (4 minutes) immediately after adding 1 ml of ice-cold incubation buffer. The supernatant was aspirated and discarded, pellets were counted with a Beckman gamma 5000. For Scatchard analysis (Ann. N.Y. Acad. Sci. 51: 660, 1949), ^125I-CCK-33 was progressively diluted with increasing concentrations of CCK-33.
In the case of `O=C(NC(Cc1cccs1)C(=O)Nc1ccccc1C(=O)c1ccccc1F)c1ccsc1` (racemic) [Example 12, 2-N-(N^a-3-Thienoyl-DL-B-(2-thienyl)alanyl)amino 2'-fluorobenzophenone], the IC50 is 1.3 µM. For `O=C(N[C@@H](CC1CNc2ccccc21)C(=O)Nc1ccc(Cl)cc1C(=O)c1ccccc1)c1ccsc1` (single isomer, unassigned) [Example 22B], the half-inhibitory concentration (IC50) is 2.2 µM. Take `CC(C)(C)OC(=O)N[C@@H](Cc1c[nH]c2ccccc12)C(=O)Nc1ccc(Cl)cc1C(=O)c1ccccc1` [Example 2, 2-N-(N-a-Boc-L-tryptophanyl)amino-5-chlorobenzo phenone]: the IC50 came out at 0.74 µM. For the compound `CC(C)(C)OC(=O)N[C@@H](Cc1c[nH]c2ccccc12)C(=O)Nc1ccccc1C(=O)c1ccccc1F` [Example 3, 2-N-(N^a-Boc-L-tryptophanyl)amino-2'-fluorobenzo phenone], the 50% inhibitory concentration (IC50) is 3.7 µM. In the case of `CC(C)(C)OC(=O)N[C@@H](Cc1c[nH]c2ccccc12)C(=O)Nc1ccccc1C(=O)c1ccccc1` [Example 5, 2-N-(N^a-Boc-L-tryptophanyl)aminobenzophenone], the IC50 was found to be 4.8 µM.

For `O=C(CCc1c[nH]c2ccccc12)Nc1ccc(Cl)cc1C(=O)c1ccccc1` [Example 13, 2-N-[3-(3'indolyl)propanoyl]amino-5-chlorobenzophenone], the IC50 worked out at 10 µM. For `O=C(N[C@@H](Cc1c[nH]c2ccccc12)C(=O)Nc1ccccc1C(=O)c1ccccc1)c1ccc(Cl)cc1` [Example 15, 2-N-(N^α-p-Chlorobenzoyl-L-tryptophanyl)aminobenzophenone], the IC50 was 0.9 µM. Regarding `CC(=O)N[C@@H](Cc1c[nH]c2ccccc12)C(=O)Nc1ccccc1C(=O)c1ccccc1` [Example 16, 2-N-(N^a-acetyl-L-tryptophanyl)aminobenzophenone], the IC50 was found to be 1 µM.

Regarding `O=C(N[C@@H](Cc1c[nH]c2ccccc12)C(=O)Nc1ccccc1C(=O)c1ccccc1)c1ccsc1` [Example 17, 2-N-(N^a-3-thienoyl-L-tryptophanyl)aminobenzophenone], the IC50 was 0.19 µM. With `CC(C)(C)OC(=O)NCC(=O)N[C@@H](Cc1c[nH]c2ccccc12)C(=O)Nc1ccccc1C(=O)c1ccccc1` [Example 18, 2-N-(N^a-Boc-glycyl-L-tryptophanyl)aminobenzophenone], the IC50 was 8 µM. In the case of `CSCC[C@H](NC(=O)OC(C)(C)C)C(=O)NCC(=O)N[C@@H](Cc1c[nH]c2ccccc12)C(=O)Nc1ccccc1C(=O)c1ccccc1` [Example 19, 2-N-(N^a-Boc-L-methionyl-glycyl-L-tryptophanyl)aminobenzophenone], the IC50 amounted to 2.4 µM. As to `O=C(N[C@@H](Cc1c[nH]c2ccccc12)C(=O)Nc1ccc(Cl)cc1C(=O)c1ccccc1)c1ccsc1` [Example 21, 2-N-(N^a-3-thienoyl-L-tryptophanyl)amino-5-chlorobenzophenone], the IC50 was 0.4 µM.

The experiment is the same for the next values; noted with them: read-out: IC50(µM) ^125I-CCK Pancreas; inhibition of 125I-CCK-33 binding, rat pancreas membranes, 37°C, 30 minutes.
As to `CSCC[C@H](NC(=O)[C@H](Cc1ccc(O)cc1)NC(=O)OCc1ccccc1)C(=O)NCC(=O)N[C@@H](Cc1c[nH]c2ccccc12)C(=O)Nc1ccccc1C(=O)c1ccccc1` [Example 20, 2-N-(N^a-Benzyloxycarbonyl-L-tryosyl-L-methionyl-glycyl-L-tryptophanyl)aminobenzophenone] (Cbz-YMGW-X1), the IC50 is 2 µM.
